Read-outs that look alike come from different tables or passages of the source.
Key:
[1] = target: T1, chymotrypsin-like activity of 20S proteasomes in PC-3 cells (Homo sapiens, UniProt P28074); experiment: Chymotrypsin-like activity of 20S proteasomes in lysates of treated PC-3 cells; format: cell-based; conditions: PC-3, read-out: % inhibition of the chymotrypsin-like activity of 20S proteasomes in PC-3 cell lysates; 100 nM; 1 hr incubation
T1 construct: endogenous in cells; host or cells: PC-3 (ATCC CRL-1435)
Experimental: PC-3 (ATCC, CRL-1435), the human prostate cancer cell line, was cultured in F12K medium supplemented with 2 mM L-glutamine, 100 units/ml penicillin, 100 μg/ml streptomycin and 10% heat inactivated fetal bovine serum at 37° C., 5% CO2 and 95% humidified air. […] DMSO was used as the vehicle control at a final concentration of 0.1%. Following 1 hr incubation of PC-3 cells with the compounds, the cells were washed 3× with ice-cold 1× Dulbecco's Phosphate-Buffered Saline (DPBS, Mediatech, Herndon, Va.). […] Cell debris was pelleted by centrifugation at 14,000 rpm for 10 min, 4° C. and supernatants (=cell lysates) were transferred to a new tube. Protein concentration was determined by the BCA protein assay kit (Pierce Biotechnology, Rockford, Ill.). […] The released coumarin (AMC) was measured fluorometrically by using λex=390 nm and λem=460 nm. The assay was performed in a microtiter plate (Corning 3904) and followed kinetically with measurements every five minutes for 2 hr. The total amount of protein used for each assay was 20 μg. The final concentration of Suc-LLVY-AMC and DMSO was 20 μM and 0.2%, respectively. Results are presented as the percent inhibition of the 20S proteasome chymotrypsin-like activity relative to the DMSO control.

[2] = target: T2, chymotrypsin-like activity of 20S proteasomes in RPMI 8226 cells (Homo sapiens, UniProt P28074); experiment: Chymotrypsin-like activity of 20S proteasomes in lysates of treated RPMI 8226 cells; format: cell-based; conditions: RPMI-8226, read-out: % inhibition of the chymotrypsin-like activity of 20S proteasomes in RPMI 8226 cell lysates
T2 construct: added to 2.5×10^5/ml RMPI 8226 cells; endogenous in cells; host or cells: RPMI 8226 (ATCC CCL-155)
T2 sequence (P28074 60-263): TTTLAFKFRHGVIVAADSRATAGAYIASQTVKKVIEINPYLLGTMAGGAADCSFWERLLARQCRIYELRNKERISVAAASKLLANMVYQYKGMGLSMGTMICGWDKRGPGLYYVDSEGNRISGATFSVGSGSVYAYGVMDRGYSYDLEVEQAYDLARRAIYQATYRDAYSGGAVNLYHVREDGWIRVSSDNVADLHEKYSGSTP
Experimental: RPMI 8226 (ATCC, CCL-155), the human multiple myeloma cell line, was cultured in RPMI 1640 medium supplemented with 2 mM L-glutamine, 100 units/ml penicillin, 100 μg/ml streptomycin, 1 mM sodium pyruvate and 10% heat inactivated fetal bovine serum at 37° C., 5% CO2 and 95% humidified air. […] DMSO was used as the vehicle control at a final concentration of 0.1%. Following 1 hr incubation of RMPI 8226 cells with the compounds, the cells were pelleted by centrifugation at 2,000 rpm for 10 sec at room temperature and washed 3× with ice-cold 1× Dulbecco's Phosphate-Buffered Saline (DPBS, Mediatech, Herndon, Va.). DPBS washed cells were lysed on ice for 15 min in lysis buffer (20 mM HEPES, 0.5 mM EDTA, 0.05% Triton X-100, pH 7.3) supplemented with protease inhibitor cocktail (Roche Diagnostics, Indianapolis, Ind.). Cell debris was pelleted by centrifugation at 14,000 rpm for 10 min, 4° C. and supernatants (=cell lysates) were transferred to a new tube. Protein concentration was determined by the BCA protein assay kit (Pierce Biotechnology, Rockford, Ill.). […] The released coumarin (AMC) was measured fluorometrically by using λex=390 nm and λem=460 nm. The assay was performed in a microtiter plate (Corning 3904) and followed kinetically with measurements every five minutes for 2 hr. The total amount of protein used for each assay was 20 μg. The final concentration of Suc-LLVY-AMC and DMSO was 20 μM and 0.2%, respectively.

[3] = system: MES-SA/Dx5; experiment: Cell growth inhibition (resazurin), multidrug resistant MES-SA/Dx5; format: cell-based, human; conditions: from EC50 values
[4] = system: RPMI 8226; experiment: cells
Experimental: RPMI 8226 (CCL-155), HT-29 (HTB-38), and B16-F10 (CRL-6475) cells were purchased from ATCC. RPMI 8226 cells were maintained in RPMI 1640 media supplemented with 10% (v/v) FBS, 2 mM L-glutamine, 1 mM sodium pyruvate and Penicillin/Streptomycin at 100 IU/ml and 100 μg/ml, respectively. HT-29 cells were maintained in McCoys 5A supplemented with 10% (v/v) FBS, 2 mM L-glutamine, 1 mM sodium pyruvate, 1% (v/v) non-essential amino acids, 10 mM HEPES and Penicillin/Streptomycin at 100 IU/ml and 100 μg/ml, respectively. B16-F10 cells were maintained in DMEM supplemented with 10% (v/v) FBS, 2 mM L-glutamine, 10 mM HEPES and Penicillin/Streptomycin at 100 IU/ml and 100 μg/ml, respectively.
RPMI 8226 cells were seeded at 2×10^4 cells/well in 90 μl RPMI media containing 10% (v/v) FBS or 1% (v/v) FBS into 96 well black-walled, clear-bottom tissue culture plates. […] Formulae II-16, II-17 and Formula II-18 were serially diluted in media containing 1% or 10% FBS and added in triplicate to the test wells. […] The final concentration of Formula II-18 ranged from 2 μM to 630 pM.

[5] = system: HL-60/MX2; experiment: Cell growth inhibition (resazurin), multidrug resistant HL-60/MX2; conditions: from EC50 values
Experimental: Concentrations ranging from 6.32 μM to 2 nM were tested for II-2 and II-4.
HL-60/MX2 is a multidrug resistant tumor cell line derived from the human promyelocytic leukemia cell line, HL-60 and expresses reduced topoisomerase II activity. […] Mitoxantrone, the topoisomerase II targeting agent was included as a control.

[6] = system: PC-3; experiment: Cell growth inhibition (resazurin), PC-3; format: cell-based, human; conditions: from EC50 values
[7] = system: HT-29; experiment: Cell growth inhibition (resazurin), HT-29; conditions: from EC50 values
[8] = system: MDA-MB-231; experiment: Cell growth inhibition (resazurin), MDA-MB-231; conditions: from EC50 values

Compound: C[C@H]1C(=O)N[C@@]2(C(O)[C@@H]3C=CCCC3)C(=O)O[C@@]12C (single isomer, unassigned) [Formula II-20]
- inhibition at 0.1 µM [1]: 57%
- inhibition at 0.001 µM [2]: 3 ± 10%
- inhibition at 0.005 µM [2]: 31 ± 9%
- inhibition at 0.01 µM [2]: 37 ± 3%
- inhibition at 0.05 µM [2]: 64 ± 3%
- inhibition at 0.1 µM [2]: 66 ± 3%
- inhibition at 0.5 µM [2]: 71 ± 2%
- inhibition at 1 µM [2]: 73 ± 2%
- inhibition at 10 µM [2]: 87 ± 4%

Compound: C[C@@]12OC(=O)[C@]1([C@@H](O)[C@@H]1C=CCCC1)NC(=O)[C@@H]2CCBr [Formula II-18]
- cytotoxic activity against MES-SA/Dx5, in words [3]: cytotoxic activity
- cytotoxicity against RPMI 8226 in media containing 1% or 10% FBS, in words ([4]; 1% or 10% FBS): cytotoxic
- EC50 ([4]; Homo sapiens, RPMI-8226, read-out: 1% FBS, EC50, RPMI 8226, media containing 1% FBS, single experiments): 15 nM
- EC50 ([4]; Homo sapiens, RPMI-8226, read-out: 10% FBS, EC50, RPMI 8226, media containing 10% FBS, single experiments): 20 nM
- EC50 ([4]; Homo sapiens, RPMI-8226, read-out: Mean 1% FBS, EC50, RPMI 8226, media containing 1% FBS, mean): 14 nM
- EC50 ([4]; Homo sapiens, RPMI-8226, read-out: Mean 10% FBS, EC50, RPMI 8226, media containing 10% FBS, mean): 20 nM
- change in the mean EC50, 10% FBS relative to 1% FBS ([4]; RPMI 8226): less than three fold decrease
- EC50 ([4]; read-out: 1% FBS, EC50, RPMI 8226, media containing 1% FBS, single experiments): 13 nM
- cytotoxic activity against HL-60/MX2, in words [5]: retained cytotoxic activity
- cytotoxicity against PC-3, in words [6]: cytotoxic
- cytotoxicity against HT-29, in words [7]: cytotoxic
- cytotoxicity against MDA-MB-231, in words [8]: cytotoxic
